The record followed here is PubChem BioAssay AID564 (University of Pittsburgh Molecular Library Screening Center, 2006).

Calls of active or inactive are those of the source. The rule behind the calls is not given here.

In the test the target is Dual specificity protein phosphatase 6 (Rattus norvegicus) (UniProt Q64346). Description: catalase influence on rat DUSP6 inhibition – biochemical, catalase added, probe assessment, dose response (AID 564). Particulars: recombinant MKP-3 phosphatase, fluorescence, with catalase.
Sequence of Dual specificity protein phosphatase 6 (Rattus norvegicus) (Q64346 whole entry, looked up): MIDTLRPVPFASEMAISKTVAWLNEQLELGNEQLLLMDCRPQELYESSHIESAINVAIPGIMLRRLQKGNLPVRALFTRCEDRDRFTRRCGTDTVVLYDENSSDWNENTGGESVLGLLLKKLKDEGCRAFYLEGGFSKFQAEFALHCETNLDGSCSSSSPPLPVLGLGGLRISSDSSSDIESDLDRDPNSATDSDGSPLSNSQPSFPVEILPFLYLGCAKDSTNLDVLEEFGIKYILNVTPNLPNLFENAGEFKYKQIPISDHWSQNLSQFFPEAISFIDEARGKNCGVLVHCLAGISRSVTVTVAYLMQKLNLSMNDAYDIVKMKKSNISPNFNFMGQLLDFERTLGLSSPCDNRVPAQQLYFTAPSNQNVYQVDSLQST

On to `O=C1C(C2=C(O)c3ccccc3C2=O)=Nc2ccccc21`, for which the IC50 was > 50 µM (inactive).

As usually defined, the IC50 is the concentration at which inhibition is half-maximal.
